Results from patent publication US20080026943A1, “Phenyl-Substituted [1,2]-Oxazine-3,5-Dione and Dihydropyrone Derivatives” (priority 2004, published 2008).
Marks after values point to notes of the source that are not given here.

Columns and labels:
Pyricularia oryzae = assay type: cell-based; details: tested at 0.1, 1, 10 and 100 ppm, 20° C., 3 to 5 days, photometric at 620 nm
Lolium [1] = assay: Pre-emergence herbicidal effect, greenhouse; assay type: in vivo; details: scored after 3 weeks
Description: (§1) Seeds of mono- and dicotyledonous weed and crop plants are placed in sandy loam soil in wood fibre pots and covered with soil. The test compounds, formulated as wettable powders (WP), are then applied as an aqueous suspension with a water application rate of 600 l/ha (converted) and with addition of 0.2% wetting agent, in different dosages to the surface of the covering soil. After the treatment, the pots are placed in a greenhouse and maintained under optimum growth conditions for the test plants. The visual scoring of the emergence damage on the trial plants is carried out after a trial time of 3 weeks in comparison to untreated controls (herbicidal effect in percent (%): 100% effect=plants have died, 0% effect=like control plants).

Setaria [2] = assay: Pre-emergence herbicidal effect, greenhouse; assay type: in vivo; details: scored after 3 weeks
Description: as §1

Echinochloa [3] = assay: Post-emergence herbicidal effect, greenhouse; assay type: in vivo; details: 320 g a.i./ha, scored after about 3 weeks
Protocol: (§2) Seeds of mono- and dicotyledonous weed and crop plants are placed in sandy loam soil in wood fibre pots, covered with soil and cultivated in a greenhouse under good growth conditions. 2-3 weeks after sowing, the trial plants are treated at the one-leaf stage. The test compounds, formulated as wettable powders (WP), are sprayed at various dosages with a water application rate of 600 l/ha (converted) and with addition of 0.2% wetting agent to the green parts of the plants. After the trial plants have stood in the greenhouse for about 3 weeks under optimum growth conditions, the effect of the products is scored visually in comparison to untreated controls (herbicidal effect in percent (%): 100% effect=plants have died, 0% effect=like control plants).

Lolium [4] = assay: Post-emergence herbicidal effect, greenhouse; assay type: in vivo; details: 320 g a.i./ha, scored after about 3 weeks
Protocol: as §2

Setaria [5] = assay: Post-emergence herbicidal effect, greenhouse; assay type: in vivo; details: 320 g a.i./ha, scored after about 3 weeks
Protocol: as §2

[6] = logP by HPLC on a reversed-phase column (C18), EEC Directive 79/831 Annex V.A8; assay type: physicochemical; details: reversed-phase C18, 43° C., pH variant not stated for these values
Description: [table] The determination is made in the acidic range at a pH of 2.3 using 0.1% aqueous phosphoric acid and acetonitrile as eluents; linear gradient from 10% acetonitrile to 95% acetonitrile. The determination with LC-MS in the acidic range is made at a pH of 2.7 with 0.1% aqueous formic acid and acetonitrile (containing 0.1% formic acid) as eluents; linear gradient from 10% acetonitrile to 95% acetonitrile. The determination with LC-MS in the neutral range is made at a pH of 7.8 with 0.001 molar aqueous ammonium hydrogen carbonate solution and acetonitrile as eluents; linear gradient from 10% acetonitrile to 95% acetonitrile. Calibration is carried out with unbranched alkan-2-ones (having 3 to 16 carbon atoms), for which the logP values are known (logP values determined on the basis of the retention times by means of linear interpolation between two successive alkanones).

[7] = tested on: green peach aphid (Myzus persicae); assay: Myzus persicae test (MYZUPE), leaf immersion; assay type: in vivo; details: 500 ppm; cabbage leaves immersed
Protocol: [table] A suitable preparation of active compound is prepared by mixing 1 part by weight of active compound with the stated amounts of solvent and emulsifier and diluting the concentrate with emulsifier-containing water to the desired concentration. Leaves of cabbage (Brassica oleracea) heavily infested by the green peach aphid (Myzus persicae) are treated by being immersed in the preparation of active compound at the desired concentration. After the desired time, the kill rate in % is determined. 100% means that all of the aphids have been killed; 0% means that no aphids have been killed.

Echinochloa [8] = assay: Pre-emergence herbicidal effect, greenhouse; assay type: in vivo; details: 1000 g a.i./ha, scored after 3 weeks
Description: as §1

Digitaria = assay: Post-emergence herbicidal effect, greenhouse; assay type: in vivo; details: 320 g a.i./ha, scored after about 3 weeks
Protocol: as §2

Sorghum = assay: Post-emergence herbicidal effect, greenhouse; assay type: in vivo; details: 320 g a.i./ha, scored after about 3 weeks
Protocol: as §2

Sugarbeets = assay: Post-emergence herbicidal effect, greenhouse; assay type: in vivo; details: 320 g a.i./ha, scored after about 3 weeks
Protocol: as §2

Plasmopara viticola = assay: Plasmopara test (grapevine)/protective; assay type: in vivo; details: protective, 100 g/ha, 6 days after inoculation
Protocol: (§3) [table] A suitable preparation of active compound is prepared by mixing 1 part by weight of active compound with the stated amounts of solvent and emulsifier and diluting the concentrate with water to the desired concentration. To test for protective activity, young plants are sprayed with the preparation of active compound at the stated application rate. After the spray coating has dried on, the plants are inoculated with an aqueous spore suspension of Plasmopara viticola and then spend 1 day in an incubation cabin at about 20° C. and 100% relative humidity. Thereafter the plants are placed in a greenhouse for 4 days at about 21° C. and about 90% humidity. The plants are then moistened and placed in an incubation cabin for 1 day.

Venturia inaequalis = assay: Venturia test (apple)/protective; assay type: in vivo; details: protective, 100 g/ha, 10 days after inoculation
Protocol: as §3, with “conidia” for “spore”, “the causative organism of apple scab, Venturia inaequalis,” for “Plasmopara viticola”, “greenhouse” for “greenhouse for 4 days”, “90% relative” for “90%”, “humidity.” for “humidity. The plants are then moistened and placed in an incubation cabin for 1 day.”

Botrytis cinerea = assay: Botrytis test (bean)/protective; assay type: in vivo; details: protective, 500 g/ha, two days after inoculation
Protocol: A suitable preparation of active compound is prepared by mixing 1 part by weight of active compound with the stated amounts of solvent and emulsifier and diluting the concentrate with water to the desired concentration.
To test for protective activity, young plants are sprayed with the preparation of active compound at the stated application rate. After the spray coating has dried on, two small pieces of agar colonized by Botrytis cinerea are placed on each leaf. The inoculated plants are placed in a darkened chamber at about 20° C. and 100% humidity.
Two days after inoculation, the size of the infestation spots on the leaves is evaluated. 0% denotes an efficacy corresponding to that of the control, while an efficacy of 100% denotes a total absence of observed infestation.

Sinapis = assay: Post-emergence herbicidal effect, greenhouse; assay type: in vivo; details: 320 g a.i./ha, scored after about 3 weeks
Protocol: as §2

Row | Compound | ED50 (dose leading to 50% inhibition of fungal growth) (Pyricularia oryzae) | herbicidal effect in percent, Echinochloa (Echinochloa [3]) | herbicidal effect in percent, Lolium (Lolium [4]) | herbicidal effect in percent, Setaria (Setaria [5]) | other results
1 | Cc1ccc(C2(Cl)C(=O)N(C)OC(C)(C)C2=O)c(Cl)c1 (stereo not shown) [Example I-1-1] | <0.1 ppm | – | – | – | –
2 | CCc1cc(Cl)cc(Cl)c1C1(Cl)C(=O)N(C)OC(C)(C)C1=O (stereo not shown) [Example I-1-7] | – | 90% | 90% | 90% | herbicidal effect in percent, Lolium (Lolium [1]; 320 g a.i./ha): 100%; herbicidal effect in percent, Setaria (Setaria [2]; 320 g a.i./ha): 100%
3 | CCc1cc(Br)ccc1C1(Cl)C(=O)N(C)OC(C)(C)C1=O (stereo not shown) [Example I-1-10] | – | 90% | 90% | 80% | –
4 | CN1OC(C)(C)C(=O)C(Cl)(c2cc(-c3ccc(Cl)cc3)ccc2Cl)C1=O (stereo not shown) [Example I-1-11] | – | – | – | – | log P [6]: log P 4.58*
5 | Cc1ccc(-c2ccc(C(F)(F)F)cc2)cc1C1(Cl)C(=O)N(C)OC(C)(C)C1=O (stereo not shown) [Example I-1-12] | – | – | – | – | log P [6]: log P 4.56*
6 | CC1(C)OC(=O)C(Cl)(c2cc(-c3ccc(Cl)cc3)ccc2Cl)C(=O)C1(C)C (stereo not shown) [Example I-2-1] | 0.48 ppm | – | – | – | activity (kill rate in %) [7]: ≥ 80%
7 | Cc1ccc(-c2ccc(Cl)cc2)cc1C1(Cl)C(=O)OC2CCCCC2(C)C1=O (stereo not shown) [Example I-2-2] | 0.12 ppm | 100% | 80% | 100% | herbicidal effect in percent, Echinochloa (Echinochloa [8]): 100%; herbicidal effect in percent, Lolium (Lolium [1]; 1000 g a.i./ha): 80%; herbicidal effect in percent, Setaria (Setaria [2]; 1000 g a.i./ha): 100%; herbicidal effect in percent, Digitaria (Digitaria): 100%; herbicidal effect in percent, Sorghum (Sorghum): 80%; herbicidal effect in percent, Sugarbeets (Sugarbeets): 0%; Efficacy in % (Plasmopara viticola): 100%; Efficacy in % (Venturia inaequalis): 99%; Efficacy in % (Botrytis cinerea): 93%
8 | CC1(C)OC(=O)C(Cl)(c2cc(-c3ccc(Cl)cc3Cl)ccc2Cl)C(=O)C1(C)C (stereo not shown) [Example I-2-6] | – | 90% | 70% | 90% | herbicidal effect in percent, Sinapis (Sinapis): 40%
9 | Cc1ccc(-c2ccc(Cl)cc2)cc1C1(Cl)C(=O)OC(C)(C)C(C)(C)C1=O (stereo not shown) [Example I-2-10] | – | 70% | 70% | 90% | herbicidal effect in percent, Sinapis (Sinapis): 80%
